We go through 8 compounds from US4165371A, “1,2,3,4,5,6-Hexahydro-1,6-methano-3-benzazocines” (priority 1976, dated 1979).

The format of data set [1] is in vivo. Conditions: mouse hot plate, intravenous; for ED50: range in parentheses. As to the method: (c) The presence of certain N-substituents would confer antagonist activity on members of this new ring system, Tests for analgesic activity were conducted using intravenous administration in the reliable Eddy mouse hot plate assay described in J. Pharmacol. Exp. Ther. […] (1953). The results are set forth in Table 1, together with the activities of morphine and codeine reported as evaluation standards.

In data set [2] the test system is morphine dependent monkeys. The experiment in a line: Physical dependence liability testing, overall evaluation. The data set is classed as in vivo, monkey. Conditions: for Estimated Physical Dependence Capacity: at doses tested. As to the method: (§1) Physical Dependence Liability testing was conducted on Compounds A, B, C and F of Table 1. For determining Single Dose Suppression (SDS) data monkeys, physically dependent on 3.0 mg/kg of morphine sulfte q6H, were withdrawn until abstinence signs of intermediate severity were present (12-14 hours). The coded drug was injected at this time by persons other than the observer. The monkeys were graded just prior to injection and at intervals of 1/2, 1, 2, 3, 4, 5 and 6 hours after injection. Grades were based on withdrawal intensity or opiate-like depression and side effects, if present. The results are shown in Tables 2 through 5 together with evaluations thereof by Dr. Henry H. Swain at the University of Michigan. Dosages are in mg/kg.

Data set [3] relates to monkeys, physically dependent on morphine. The data set is described as follows: Physical dependence liability: Single Dose Suppression (SDS) in withdrawn morphine-dependent monkeys. The class given is in vivo, monkey. Conditions: 2 monkeys. As to the method: as §1
For data set [4], the system named is Non-withdrawn, morphine dependent monkeys. The data set is described as follows: Attempted precipitation of abstinence in non-withdrawn, morphine-dependent monkeys (NW). The data set is classed as in vivo, monkey. Particulars: for Effects, precipitation of abstinence signs (NW): 2 monkeys.
The test system of data set [5] is Normal monkeys (not dependent on morphine). The data set is described as follows: Normal monkeys (not dependent on morphine): attempt to elicit the narcotic syndrome. The data set is classed as in vivo, monkey.

Regarding `c1ccc(CCN2CCC3CC(C2)c2ccccc23)cc1` (centres unmarked), in data set [1], the duration was 123 min, the onset is 4.7 min, the peak came to 25.6 min and the ED50 is recorded as 8.8 (6.2-12.5) mg/kg.
`CCCN1CCC2CC(C1)c1ccccc12` (centres unmarked): in data set [1], the duration stood at 120 min, the onset was 3.6 min, the peak was found to be 32.1 min and the ED50 was 16.2 (11.7-22.4) mg/kg.
In the case of `c1ccc2c(c1)C1CCNCC2C1` (centres unmarked) [A], in data set [2], the “Estimated Physical Dependence Capacity” value is on record as “Not morphine-like”. The “Effects, Single Dose Suppression” value in data set [3] (2.0 mg/kg) is “No apparent effect”. For the same compound, in data set [1], the duration was determined as 97.5 min, the onset came out at 3.3 min, the peak amounted to 18.0 min and the ED50 is listed as 4.9 (3.6-6.5) mg/kg. Besides, in data set [4], the morphine antagonism result was “not morphine antagonists” and the “precipitation of the morphine abstinence syndrome” value is reported as “no such result was observed”. Moreover, the narcotic signs entry in data set [5] is recorded as “no obvious narcotic signs were observed”. Besides, in data set [5] (8.0 mg/kg, 2 monkeys), the “Narcotic signs in normals” value is “No obvious narcotic signs”.
As for `CN1CCC2CC(C1)c1ccccc12` (centres unmarked) [B], in data set [2], the “Estimated Physical Dependence Capacity” value was “Little or none at doses tested”. For the same compound, in data set [3] (2.0 mg/kg), the “Effects, Single Dose Suppression” value is “No apparent effect”. Also, the “Effects, Single Dose Suppression” value in data set [3] (4.0 mg/kg) was “No obvious effect”. Further, in data set [1], the duration was 104 min, the onset is 3.2 min, the peak came to 20.3 min and the ED50 is 4.2 (2.6-6.7) mg/kg. For the same compound, in data set [4], the morphine antagonism result is recorded as “not morphine antagonists” and the “precipitation of the morphine abstinence syndrome” value was “no such result was observed”. Further, the “Effects, precipitation of abstinence signs (NW)” value in data set [4] (4.0 mg/kg) is listed as “No obvious effect”. Further, the “Effects, precipitation of abstinence signs (NW)” value in data set [4] (8.0 mg/kg) is listed as “No obvious effect”. In addition, the narcotic signs result in data set [5] is given as “no obvious narcotic signs were observed”.
For `c1ccc2c(c1)C1CCN(CC3CC3)CC2C1` (centres unmarked) [C], in data set [2], the “Estimated Physical Dependence Capacity” value is on record as “None”. For the same compound, the “Remarks: direct effects / convulsions” value in data set [2] (doses tested) is “The drug causes convulsions”. Also, the “Dose estimated to be equivalent to 3.0 mg/kg of morphine sulfate” value in data set [2] (evaluation in words) is given as “Not morphine-like”. Moreover, the “Effects, Single Dose Suppression” value in data set [3] (5.0 mg/kg) and in data set [3] (10.0 mg/kg) was “No obvious effect” in each case.
For `C=CCN1CCC2CC(C1)c1ccccc12` (centres unmarked) [F], the “Estimated Physical Dependence Capacity” value in data set [2] is reported as “None”. Besides, the “Effects, Single Dose Suppression” value in data set [3] (1.0 mg/kg) is reported as “No apparent effect”; in data set [3] (2.0 mg/kg) it was “No apparent effect”; in data set [3] (4.0 mg/kg) it was “No apparent effect”; in data set [3] (8.0 mg/kg), “No apparent effect”; in data set [3] (16.0 mg/kg), “No obvious effect”. This compound also gave a duration in data set [1] of 119 min. Also, the onset in data set [1] was found to be 3.2 min. The same compound had a peak in data set [1] of 16.3 min. In addition, in data set [1], the ED50 is recorded as 19.4 (13.1-28.7) mg/kg.
On to `COc1ccc2c3c1O[C@H]1[C@@H](O)C=C[C@H]4[C@@H](C2)N(C)CC[C@@]341` [codeine, reference compound], for which the ED50 in data set [1] is on record as 7.5 (6.8-8.3) mg/kg.
Turning to `CN1CC[C@]23c4c5ccc(O)c4O[C@H]2[C@@H](O)C=C[C@H]3[C@H]1C5` [morphine, reference compound], the ED50 in data set [1] is 1.2 (0.9-1.3) mg/kg.
